The values below come from paper PMC8160438, “A Novel Heptapeptide, GPPGPAG Transfers to the Brain, and Ameliorates Memory Dysfunction and Dendritic Atrophy in Alzheimer’s Disease Model Mice” (Frontiers in Pharmacology, 2021).

Data set [1] in a line: Cerebral cortex level after oral administration (brain penetration), LC-MS. The format is in vivo, mouse. Here is the method: Bioavailability and brain penetration of GPPGPAG was performed as previously described ([Yang et al., 2017]). GPPGPAG (500 mg) was dissolved in 750 μL of physiological saline. […] The mice were euthanized at 10, 60, and 180 min after administration. Blood was collected and centrifuged at 10,000 g and 4°C for 10 min to yield plasma. Plasma aliquots (200 μL) were extracted with methanol, dried, sonicated, and resolubilized in 50% methanol (100 μL). The cerebral cortex was also collected after complete saline perfusion for removing blood. The cortex was homogenized, extracted with methanol, dried, sonicated, and resolubilized in 50% methanol (100 µL). To calculate GPPGPAG concentration in the plasma and brain using liquid chromatography-mass spectrometry (LC-MS), a standard curve was generated by analyzing standard amounts of GPPGPAG solubilized in methanol at a dosage of 1, 5, and 10 μg/ml. A Thermo Scientific Accela high-performance LC (HPLC) system, interfaced with an LTQ Orbitrap XL hybrid Fourier Transform Mass Spectrometer (Thermo Fisher Scientific), was used to chemically profile GPPGPAG and the biosamples. The LC analysis was performed on a InertSustain AQ-C18 (4.6 mm ID × 50 mm, 5 μm, GL Sciences, Tokyo, Japan) held at 40°C with a flow rate of 200 μL/min 0.01% formic acid in water (a) and methanol (b) were used in the mobile phase, with the following linear elution gradient: 0–15 min, 10–90% b; 15–18 min, 90–10% b; 18–20 min, 10% b. The following electrospray interface (ESI) parameters were used: spray voltage, 4.5 kV; capillary voltage, […]; tube lens, 150 V; capillary temperature, 330°C; sheath gas flow rate, 50 units; aux gas flow rate, 10 units. […]
[…] (A) Total ion chromatogram (upper) and extracted ion current chromatogram (lower) of standard GPPGPAG (m/z = 552.2753) at 10 μg/ml for quantification of (B) and (C) data. […] In total ion chromatogram (upper) and extracted ion current chromatogram (lower) of m/z = 552.2753, no peaks were detected. […] In total ion chromatogram and extracted ion current chromatogram of m/z = 552.2753, peaks matching the retention time of GPPGPAG were detected. (D) Total ion chromatogram (upper) and extracted ion current chromatogram (lower) of standard GPPGPAG (m/z = 552.2716) at 10 μg/ml for quantification of (E) and (F) data. […] In total ion chromatogram (upper) and extracted ion current chromatogram (lower) of m/z = 552.2716, no peaks were detected. […] In total ion chromatogram and extracted ion current chromatogram of m/z = 552.2716, peaks matching the retention time of GPPGPAG were detected. Quantified amount of GPPGPAG in the plasma (G) and cerebral cortex (H) are shown. *p < 0.05, ****p < 0.0001 vs, saline 10 min, one-way ANOVA with post hoc Bonferroni’s test, mean ± standard error, n = 3 mice.

The nature of data set [2]: Body weight during i.c.v. infusion. The format is in vivo, mouse. The conditions noted are these: i.c.v. infusion for 28 days. The procedure:
FIGURE 4 Effect of i.c.v. infusion of GPPGPAG on object recognition memory deficits in 5XFAD mice (A) GPPGPAG or vehicle solution (artificial cerebrospinal fluid; ACSF) was continuously administered to the lateral ventricle for 28 days in mice (male and female, 24–27 weeks old). The dose of GPPGPAG was set as 10 nM in CSF. An object recognition test was carried out with a 3 h interval time. The preferential indices of the training and test sessions are shown. *p < 0.05 vs. vehicle-treated 5XFAD mice, repeated measures two-way ANOVA with post hoc Bonferroni’s test. mean ± standard error. Wild-type (male, n = 5), vehicle-treated 5XFAD mice (male, n = 2; female, n = 2), GPPGPAG-infused 5XFAD mice (male, n = 2; female, n = 3). (B) Locomotion was evaluated by open field test. Distance moved and duration with immobility were shown. mean ± standard error (C) Changed values of body weight of mice during whole experimental period are shown.
P re fe re n tia l in d e x (% ) […]
Effect of i.c.v. infusion of GPPGPAG on object recognition memory deficits in 5XFAD mice
(A) GPPGPAG or vehicle solution (artificial cerebrospinal fluid; ACSF) was continuously administered to the lateral ventricle for 28 days in mice (females, 5 - 7 months old). The dose of GPPGPAG was set as 10 nM in ACSF. An object recognition test was carried out with a 24 h interval time. […] (B) Locomotion was evaluated by open field test. […]

No end group written: not given here.

Turning to GPPGPAG [GPPGPAG], the “transferred amount in the brain” value in data set [1] (calculated for 10 mg/kg per orally from the cortex level at 500 mg/mouse) is 0.598 pmol. In data set [1] (cerebral cortex, po, 180 min after p.o. administration of 500 mg/mouse, ddY mice, female, LC-MS, mean of n = 3), this substance gave a tissue level at time at 3 h of 2750 ng/g. The “detection in the cerebral cortex” value in data set [1] (ddY mice, female, 8 weeks, 500 mg/mouse p.o. single dose, cortex after saline perfusion, LC-MS, n = 3) is “detected 10 min later”. In addition, in data set [1] (male mouse, 9 weeks old, p.o. administration, data not shown), the “detection in plasma and cerebral cortex” value is “similarly detected in the plasma and cerebral cortex”. Also, the body weight result in data set [2] (5XFAD mice, 10 nM in CSF) is “not significantly changed”; in data set [2] (female 5XFAD mice, 10 nM, separately performed experiment), “no significant difference”.
